# Patent publication US7816497B2, “Compositions and methods for inhibiting drusen complement components C3a and C5a for the treatment of age-related macular degeneration” (University of Kentucky, priority 2002, dated 2010)
# Key:
# [1] = tested on: laser-induced CNV; assay: Laser-induced CNV in wild-type mice, intravitreous injection of complement blockers; assay type: in vivo; conditions: intravitreous injection immediately after laser injury, compared with control peptide or isotype control antibodies
# Experimental: Laser photocoagulation (532 nm, 200 mW, 100 ms, 75 μm) (OcuLight GL, Iridex) was performed (volume studies: 3/eye; protein analyses/flow cytometry: 12/eye) on both eyes of each animal to induce CNV as previously described in Sakurai, E., Taguchi, H., Anand, A., Ambati, B. K., Gragoudas, E. S., Miller, J. W., Adamis, A. P. & Ambati, J. (2003) Invest Ophthalmol Vis Sci 44, 2743-9; and Sakurai, E., Anand, A., Ambati, B. K., van Rooijen, N. & Ambati, J. (2003) Invest Ophthalmol Vis Sci 44, 3578-85. CNV volumes were measured by scanning laser confocal microscope (TCS SP, Leica) as previously reported (Id.) with 0.5% FITC-Griffonia simplicifolia Isolectin B4 (Vector Laboratories) or 0.5% FITC-rat antibody against mouse CD31 (BD Pharmingen). Volumes obtained by lectin and CD31 staining were highly correlated (r^2=0.95). […]
# Because the probability of each laser lesion developing CNV is influenced by the group to which it belongs, the mouse, the eye, and the laser spot, the mean lesion volumes were compared using a linear mixed model with a split plot repeated measures design, as previously described. […] Statistical significance was determined at the 0.05 level. […]
# [2] = tested on: macrophages or neutrophils in the choroid; assay: Leukocyte numbers in the choroid after intravitreous injection (flow cytometry); assay type: in vivo, mice; conditions: 4 hours after intravitreous injection; data not shown
# Experimental: Single cell suspensions isolated from mouse RPE/choroids via collagenase D treatment (20 U/mL; Roche Diagnostics) were incubated in Fc block (0.5 mg/mL; BD Pharmingen) for 15 min on ice, stained with Cy5-rat antibody to mouse F4/80 (1:30; Serotec), FITC-hamster antibody to mouse CD11c (1:100; Serotec), or PE-rat antibody to mouse Gr-1 (1:200; eBioscience), and subjected to FACS analysis (FACScalibur, BD Biosciences). Macrophages and neutrophils were defined as F4/80+CD11c- and Gr-1+F4/80-cells, respectively.
# [3] = tested on: VEGF; assay: VEGF levels in mouse eye tissue after intravitreous injection (VEGF ELISA); assay type: in vivo; conditions: wild-type mice, 4 hours after injection, dose-dependent
# Experimental: (§1) The RPE/choroid complex was dissected from the mouse eye and sonicated in lysis buffer (20 mM imidazole HCl, 10 mM KCl, 1 mM MgCl2, 10 mM EGTA, 1% Triton X-100, 10 mM NaF, 1 mM Na molybdate, 1 mM EDTA with protease inhibitor (Sigma-Aldrich)) on ice for 45 sec. VEGF protein levels (pg/ml) in the RPE cell culture supernatant or the RPE/choroid lysate were determined by ELISA (R&D Systems) and normalized to total protein (μg/ml) (Bio-Rad).
# (§2) VEGF protein data are represented as the mean±s.e.m. of at least 3 independent experiments and compared using a two-tailed Student's t-test. The null hypothesis was rejected at P<0.05.
# [4] = tested on: human RPE cells; assay: VEGF secretion by human RPE cells (VEGF ELISA); assay type: cell-based; conditions: 50 ng/ml; confluent and subconfluent conditions; compared to PBS
# Experimental: Human RPE cells (gift of David R. Hinton, University of Southern California) were cultured in Dulbecco's modified essential medium (Invitrogen) containing 10% fetal bovine serum, penicillin G (100 U/ml), streptomycin sulfate (0.1 mg/ml) (all from Sigma-Aldrich) at 37° C. under 10% CO2 and 90% room air. Cells were used for experiments upon attaining 80% or 100% confluence.
# as §1, §2
Molecule,CNV (volume of laser-induced CNV) [1],number of macrophages or neutrophils in the choroid [2],VEGF levels in the RPE/choroid [3],human RPE cell secretion of VEGF [4]
"N=C(N)NCCC[C@H](NC(=O)COCC(c1ccccc1)c1ccccc1)C(=O)O [C3aRA, N^2-[(2,2-diphenylethoxy)acetyl]-arginine]",reduced,–,–,–
AcF[OPdChaWR] [C5aRA],reduced,–,–,–
"C3a: activated complement component 3 (human), applied to RPE cells or injected intravitreously",–,no increase,increase,upregulated
"C5a: activated complement component 5 (human), applied to RPE cells or injected intravitreously (protein, UniProt P01031 678-751, looked up, C5a anaphylatoxin) C5a anaphylatoxin: TLQKKIEEIAAKYKHSVVKKCCYDGACVNNDETCEQRAARISLGPRCIKAFTECCVVASQLRANISHKDMQLGR",–,no increase,increase,upregulated
